Source: US20260265538A1, “Aqueous Industrial Product Stabilized Against Microbial Contamination” (Thor GmbH, priority 2023, published 2026)

Key:
Type in all cases: cell-based
[1] = test system: Bacteria mixture 1 (Pseudomonas genus); assay: Repetitive stress test of paints with bacteria mixture 1, semiquantitative evaluation (examples 2 and 3); details: table 3
Description: (§1) Paints 1 to 3 were mixed and homogenized with various concentrations of the guanidinium salts to be tested.
(§2) The batches obtained of the paint thus prepared were inoculated repeatedly with a mixture of different wild-type bacterial strains that are of practical relevance with regard to contamination. These bacteria had previously been isolated from commercial emulsion paints containing conventional preservatives (bacteria mixture 1, Pseudomonas genus), which are microbially contaminated in practice, and commercial so-called preservative-free alkaline emulsion paints (bacteria mixture 2, alkaliphilic bacteria of the Nesterenkonia & Alkalibacterium genus), which are microbially contaminated in practice.
(§3) • Pseudomonas spp. (Pseudomonas oleovorans group) DSM 33933 • Pseudomonas aeruginosa DSM 33935 • Pseudomonas oleovorans DSM 33936 • Pseudomonas putida DSM 33937 • Pseudomonas aeruginosa DSM 33938
(§4) The inoculum was added to the respective sample in each inoculation at 2% (v/w) as a fresh cell suspension in a physiological saline solution (0.9% NaCl). The cell count of the added inoculum in example 1 was 10^5/ml, in examples 2 to 5 10^9/ml, and in example 6 10^6/ml, each in equal portions consisting of the individual bacterial strains. The cell suspension was produced by growing the individual bacteria at 30° C. for 24 h in liquid culture on a shaker. The medium used to grow the bacteria from bacteria mixture 1 was Müller-Hinton liquid medium. Bacteria from bacteria mixture 2 were grown in Müller-Hinton liquid medium that had been adjusted to pH 9.5-9.7 with an alkaline buffer solution beforehand. After growing, the individual liquid cultures were centrifuged, and the cells were resuspended in physiological saline solution. In order to adjust the mixture to the desired cell count, the individual bacteria suspensions, if necessary, were diluted accordingly before being combined with saline solution. The cell count of the inoculum was determined in each case by chamber counting.
In examples 2 to 6, what is called a repetitive stress test with bacteria was conducted by inoculating the samples at particular time intervals repeatedly with a bacteria suspension having a cell count of 10^9/ml (2% v/w) and monitoring the evolution of the bacteria by a semiquantitative evaluation method. After each inoculation, the samples were incubated at 30° C. for 6 days (bacteria mixture 1 and 3) or 7 and 14 days (bacteria mixture 2), and after these periods bacterial infestation was evaluated semiquantitatively in each case. For this purpose, an aliquot was taken from each sample after homogenization using a sterile plastic inoculation loop (10 μl) and streaked evenly on agar plates (bacteria mixture 1 and 3 on tryptic soy agar, bacteria mixture 2 on DSMZ 31 alkaline nutrient agar). The streaked agar plates were then incubated at 30° C. for 48 h (bacteria mixture 1 and 3) or 5 to 7 days (bacteria mixture 2). After incubation, the bacterial colonies grown on the agar plates were visually evaluated and quantified according to the following scheme:
A total of 3 inoculation cycles was performed in each repetitive stress test.
Inoculation 2% (w/v) with Bacteria Mixture 1, 10^9 CFU/ml
2% (w/v) Inoculation with Bacteria Mixture 1, […]

[2] = test system: Bacteria mixture 3; assay: Repetitive stress test of calcium carbonate slurry with bacteria mixture 3, semiquantitative evaluation (example 6); details: table 6; slurry having a pH of pH 9.4, addition of 0.075% by weight
Protocol: The calcium carbonate slurry was stored at 60° C. for 3 days prior to addition of the guanidinium salts for heat sterilization. The slurry thus treated was then admixed and homogenized with different concentrations of guanidine salts. The slurry prepared in this way was inoculated repeatedly with bacteria strains of practical relevance (bacteria mixture 3).
• Alcaligenes faecalis NCIMB 13145 • Aeromonas hydrophila DSM 6173 • Escherichia coli DSM 13631 • Burkholderia cepacia DSM 9241 • Staphylococcus aureus DSM 799 • Pseudomonas aeruginosa DSM 50071 • Pseudomonas putida DSM 13624
The inoculum was added to the respective sample in each inoculation at 2% (v/w) as a fresh cell suspension in a physiological saline solution (0.9% NaCl). […] The cell count of the inoculum was determined in each case by chamber counting.
In examples 2 to 6, what is called a repetitive stress test with bacteria was conducted by inoculating the samples at particular time intervals repeatedly with a bacteria suspension having a cell count of 10^9/ml (2% v/w) and monitoring the evolution of the bacteria by a semiquantitative evaluation method. After each inoculation, the samples were incubated at 30° C. for 6 days (bacteria mixture 1 and 3) or 7 and 14 days (bacteria mixture 2), and after these periods bacterial infestation was evaluated semiquantitatively in each case. […]

[3] = test system: Bacteria mixture 1 (Pseudomonas genus); assay: Single inoculation of paint with bacteria mixture 1, live bacteria count (CFU/g) over 28 days (example 1); details: for Colony forming units (CFU)/g of paint after days [d]: Table 1, Paint 1
Description: as §1, §2, §3, §4
In example 1, the samples were inoculated once with a bacteria suspension (bacteria mixture 1) with a cell count of 10^5/ml (2% v/w) and the growth thereof was monitored by determining the live bacteria count per g of paint (colony-forming units, CFU/g) in the samples over 28 days. The CFU/g was determined each time by taking an aliquot (1 g) from the previously homogenized sample and running a serial decadic dilution series in physiological saline solution (0.9% NaCl) by streaking on tryptic soy agar, followed by incubation of the agar plates at 30° C. for 48 h.
Inoculation 2% (w/v) with Bacteria Mixture 1, 10^5 CFU/ml

## N=C(N)N.N=C(N)N.O=C(O)O [guanidine carbonate]
[1]; paint 1, pH of pH 9.4, addition of 0.15% by weight
  Stabilization of the paint against microbial infestation: distinct stabilization
[1]; paint 2, pH of pH 9.1, addition of 0.175% by weight
  Stabilization of the paint against microbial infestation: distinct stabilization
[2]
  Stabilization of the slurry against microbial infestation: distinct stabilization
[3]; +0.01% guanidine carbonate (67 ppm guanidine), pH 8.1, 0 d
  Colony forming units (CFU)/g of paint after days [d]: 1.2 × 10^3 CFU/g
[3]; +0.01% guanidine carbonate (67 ppm guanidine), pH 8.1, 2 d
  Colony forming units (CFU)/g of paint after days [d]: 3.2 × 10^3 CFU/g
[3]; +0.01% guanidine carbonate (67 ppm guanidine), pH 8.1, 5 d
  Colony forming units (CFU)/g of paint after days [d]: 3.0 × 10^5 CFU/g
[3]; +0.01% guanidine carbonate (67 ppm guanidine), pH 8.1, 28 d
  Colony forming units (CFU)/g of paint after days [d]: 2.8 × 10^6 CFU/g
[3]; +0.025% guanidine carbonate (164 ppm guanidine), pH 8.3, 0 d
  Colony forming units (CFU)/g of paint after days [d]: 1.2 × 10^3 CFU/g
[3]; +0.025% guanidine carbonate (164 ppm guanidine), pH 8.3, 2 d
  Colony forming units (CFU)/g of paint after days [d]: 1.1 × 10^3 CFU/g
[3]; +0.025% guanidine carbonate (164 ppm guanidine), pH 8.3, 5 d
  Colony forming units (CFU)/g of paint after days [d]: 1.0 × 10^5 CFU/g
[3]; +0.025% guanidine carbonate (164 ppm guanidine), pH 8.3, 28 d
  Colony forming units (CFU)/g of paint after days [d]: 2.3 × 10^6 CFU/g
[3]; +0.05% guanidine carbonate (328 ppm guanidine), pH 8.5, 0 d
  Colony forming units (CFU)/g of paint after days [d]: 9.0 × 10^2 CFU/g
[3]; +0.05% guanidine carbonate (328 ppm guanidine), pH 8.5, 2 d
  Colony forming units (CFU)/g of paint after days [d]: <5 CFU/g
[3]; +0.05% guanidine carbonate (328 ppm guanidine), pH 8.5, 5 d
  Colony forming units (CFU)/g of paint after days [d]: <5 CFU/g
[3]; +0.05% guanidine carbonate (328 ppm guanidine), pH 8.5, 28 d
  Colony forming units (CFU)/g of paint after days [d]: <5 CFU/g
[3]; +0.075% guanidine carbonate (492 ppm guanidine), pH 8.7, 0 d
  Colony forming units (CFU)/g of paint after days [d]: 1.1 × 10^3 CFU/g
[3]; +0.075% guanidine carbonate (492 ppm guanidine), pH 8.7, 2 d
  Colony forming units (CFU)/g of paint after days [d]: <5 CFU/g
[3]; +0.075% guanidine carbonate (492 ppm guanidine), pH 8.7, 5 d
  Colony forming units (CFU)/g of paint after days [d]: <5 CFU/g
[3]; +0.075% guanidine carbonate (492 ppm guanidine), pH 8.7, 28 d
  Colony forming units (CFU)/g of paint after days [d]: <5 CFU/g
[3]; +0.1% guanidine carbonate (656 ppm guanidine), pH 9.0, 0 d
  Colony forming units (CFU)/g of paint after days [d]: 1.2 × 10^3 CFU/g
[3]; +0.1% guanidine carbonate (656 ppm guanidine), pH 9.0, 2 d
  Colony forming units (CFU)/g of paint after days [d]: <5 CFU/g
[3]; +0.1% guanidine carbonate (656 ppm guanidine), pH 9.0, 5 d
  Colony forming units (CFU)/g of paint after days [d]: <5 CFU/g
[3]; +0.1% guanidine carbonate (656 ppm guanidine), pH 9.0, 28 d
  Colony forming units (CFU)/g of paint after days [d]: <5 CFU/g
[3]; table 1, addition of 0.05% by weight to a paint having a pH of greater than or equal to pH 8.5
  Stabilization of the paint against microbial infestation: distinct stabilization
